Experimental data: patent US7799955B2, “Isoflavone metabolites” (priority 1999, dated 2010)
pIC50: −log10 of the molar value. Converted amounts (≈) assume the structure as drawn. Read-outs that look alike come from different tables or passages of the source.

How the values were obtained:
[1] = system: MDA-MB-468 (estrogen negative) cancer cells; test: Inhibition of MDA-MB-468 (estrogen negative) breast cancer cells; format: cell-based; conditions: for IC50: Homo sapiens, MDA-MB-468, 144 h; for IC50 / IC50, MDA-MB-468 cells: day 6
MCF-7 cells [2] = test: MTS in vitro cytotoxicity / cell viability assay on MCF-7 breast cancer cells; format: cell-based; conditions: for IC50: Homo sapiens; for inhibition of MCF7 cells at low concentration / proliferative activity of cancer cells at low concentration: concentrations of less than or equal to 10 μM
Experimental: Compound A was compared with genistein to test the cell viability of MCF-7 cells. […] The cell viability was tested using the MTS in vitro cytotoxicity assay. This is considered the most convenient assay because of its ease of use, accuracy and rapid indication of toxicity (Malich G et al., Toxicology 124(3): 179-92 (1997).

MCF-7 cells [3] = conditions: cited from earlier work; for effect on growth of MCF-7 cells at low concentration: at <10 μM
PC3 cells = test: IC50 against PC3 cells; format: cell-based; conditions: Homo sapiens, PC-3
LNCap cells = test: IC50 against LNCap cells; format: cell-based; conditions: Homo sapiens
[4] = MCF7, 24 h, 1 day of incubation, Example 8, read-out: IC50, cell viability of MCF-7 cells
[5] = MCF7, 48 h, 2 days of incubation, Example 8, read-out: IC50, cell viability of MCF-7 cells
[6] = MCF7, 72 h, 3 days of incubation, Example 8, read-out: IC50, cell viability of MCF-7 cells
[7] = MCF7, 8 hours incubation, Example 9, read-out: IC50, MCF7 cells
[8] = MCF7, Example 9, incubation time not given, read-out: IC50, inhibitory effect on MCF7 cells (no significant effect)
[9] = MCF7, Example 8 table, read-out: IC50 against MCF-7 cells
[10] = day 6 of incubation, Examples 10 and 11
[11] = MCF7, 144 h, day 6 of incubation, Examples 10 and 11, read-out: IC50, MCF-7 estrogen positive breast cancer cells

Compound `O=c1c(-c2ccc(O)cc2)coc2cc(O)cc(O)c12` [genistein] has an IC50 [1] of 8.8 µg/mL (≈ 32.6 µM), an IC50 (MCF-7 cells [2]; [4]) of 32 µg/mL (≈ 118 µM) and an IC50 (MCF-7 cells [2]; [5]) of 22 µg/mL (≈ 81.4 µM). For the same compound, the IC50 (MCF-7 cells [2]; [6]) was 15 µg/mL (≈ 55.5 µM), the IC50 (MCF-7 cells [2]; MCF7, 144 h, 6 days of incubation, Example 8, read-out: IC50, cell viability of MCF-7 cells) was 18 µg/mL (≈ 66.6 µM) and the IC50 (MCF-7 cells [2]; [7]) was > 40 µg/mL. The IC50 (MCF-7 cells [2]; MCF7, 48 hours incubation, Example 9, read-out: IC50, MCF7 cells) was 38 µg/mL (≈ 141 µM), the IC50 (MCF-7 cells [2]; MCF7, 144 hours incubation, Example 9, read-out: IC50, MCF7 cells) was 15 µg/mL (≈ 55.5 µM) and the “effect on growth of MCF-7 cancer cells at low concentration” value (MCF-7 cells [2]; concentrations <10 μM, Example 8) was “enhance rather than inhibit the growth”. For the same compound, the “inhibition of MCF7 cells at low concentration” value (MCF-7 cells [2]; Example 9) was “no significant inhibition”, the “proliferative activity of cancer cells at low concentration” value (MCF-7 cells [2]; MCF7, Example 9) was “some proliferative activity” and the “effect on growth of MCF-7 cells at low concentration” value (from here on “effect on growth of MCF-7 cells”) (MCF-7 cells [3]) was “can enhance the growth”. For the same compound, the pIC50 (MCF-7 cells [3]; induced by 1-(o-chlorophenyl)-1-(p-chlorophenyl)-2,2,2-trichloroethane, 5-octylphenol, 4-nonylphenol, read-out: IC50, inhibition of proliferation of MCF-7 cells induced by environmental chemicals) was 4.48 to 4.60.
In the case of `COc1ccc(-c2coc3cc(O)ccc3c2=O)cc1` [formononetin], the IC50 (MCF-7 cells [2]; [8]) was ≥ 36 µg/mL.
For `CC(C(=O)c1ccc(O)cc1O)c1ccc(O)c(O)c1` (centres unmarked) [(V), 1-(2,4,dihydroxyphenyl)-2-(3,4-dihydroxyphenyl)-propan-1-one], the IC50 (MCF-7 cells [2]; [9]) was 10 to 20 µg/mL (≈ 36.5 to 72.9 µM).
In the case of `Oc1ccc([C@H]2COc3cc(O)ccc3C2)cc1` [equol], the IC50 (MCF-7 cells [2]; [8]) is given as ≥ 36 µg/mL and the “effect on growth of MCF-7 cells” value (MCF-7 cells [3]) is given as “can enhance the growth”.
`O=C1c2ccc(O)cc2OCC1c1ccc(O)c(O)c1` (centres unmarked) [(VII), 3′-hydroxy-dihydrodaidzen] showed an IC50 (MCF-7 cells [2]; [9]) of ~28 µg/mL (≈ 103 µM).
For `COc1ccc(-c2coc3cc(O)cc(O)c3c2=O)cc1` [biochanin A], the IC50 (MCF-7 cells [2]; MCF7, 72 and 144 hours incubation, Example 9, read-out: IC50, inhibitory effect on MCF7 cells) is listed as 18 to 23 µg/mL (≈ 63.3 to 80.9 µM) and the “effect on growth of MCF-7 cells” value (MCF-7 cells [3]) is listed as “can enhance the growth”.
For `CC(C(=O)c1ccc(O)cc1O)c1ccc(O)cc1` (centres unmarked) [O-Dma, O-desmethylangolensin], the “IC50, MDA-MB-468 cells” value [1] was 20 µg/mL (≈ 77.4 µM) and the “IC50, MCF-7 estrogen positive breast cancer cells” value (MCF-7 cells [2]; [10]) was 38 µg/mL (≈ 147 µM).
In the case of `O=c1c(-c2ccc(O)cc2)coc2cc(O)ccc12` [daidzein], the IC50 (MCF-7 cells [2]; [8]) is listed as ≥ 36 µg/mL and the “effect on growth of MCF-7 cells” value (MCF-7 cells [3]) is listed as “can enhance the growth”.
With `CC(C(=O)c1c(O)cc(O)cc1O)c1ccc(O)cc1` (centres unmarked) [6-hydroxy-O-Dma] the “IC50, MDA-MB-468 cells” value [1] was 43 µg/mL (≈ 157 µM) and the “IC50, MCF-7 estrogen positive breast cancer cells” value (MCF-7 cells [2]; [10]) was 33 µg/mL (≈ 120 µM).
In the case of `C=C(C(=O)c1cc(O)c(O)cc1O)c1ccc(O)cc1` [(VIII), 1-(2,4,5-trihydroxyphenyl)-2-(4-hydroxyphenyl)-prop-2-cn-1-one], the IC50 (MCF-7 cells [2]; [9]) was < 8 µg/mL.
In the case of `CC(C(=O)c1cc(O)c(O)cc1O)c1ccc(O)cc1` (centres unmarked) [Compound A, 1-(2,4,5-trihydroxyphenyl)-2-(4-hydroxyphenyl)-propan-1-one], the IC50 [1] was 6.8 µg/mL (≈ 24.8 µM), the “times more inhibitive than O-Dma and 6-hydroxy-O-Dma” value ([1]; MDA-MB-468, day 6) was 3-7 times and the “effect on growth of MCF-7 cells” value (MCF-7 cells [2]; 2.5 micrograms/ml, within 8 hours of incubation and at days 1 and 2) was “inhibited the growth”. For the same compound, the IC50 (MCF-7 cells [2]; [4]) was 6 µg/mL (≈ 21.9 µM), the IC50 (MCF-7 cells [2]; [5]) was 6.5 µg/mL (≈ 23.7 µM) and the IC50 (MCF-7 cells [2]; [6]) was 7 µg/mL (≈ 25.5 µM). For the same compound, the IC50 (MCF-7 cells [2]; [11]) was 2.1 µg/mL (≈ 7.66 µM), the IC50 (MCF-7 cells [2]; [7]) was 6 µg/mL (≈ 21.9 µM) and the IC50 (MCF-7 cells [2]; [9]) was 6 to 10 µg/mL (≈ 21.9 to 36.5 µM). For the same compound, the IC50 (MCF-7 cells [2]; MCF7, incubations at 24, 48, 72 and 144 hours, Example 9, read-out: IC50, MCF7 cells) was 4 to 7 µg/mL (≈ 14.6 to 25.5 µM), the “inhibition of MCF7 breast cancer cells compared with genistein, daidzein, precursors and metabolites” value (MCF-7 cells [2]; concentrations of 15-40 μg/ml, Example 9) was “significant inhibition” and the “inhibition of MCF7 cells at low concentration” value (MCF-7 cells [2]; Example 9) was “no significant inhibition”. For the same compound, the “proliferative activity of cancer cells at low concentration” value (MCF-7 cells [2]; MCF7, Example 9) was “no proliferative activity”.
For `C=C(C(=O)c1ccc(O)cc1O)c1ccc(O)c(O)c1` [(VI), 1-(2,4-di-hydroxyphenyl)-2-(3,4-dihydroxyphenyl)-prop-2-cn-1-one], the IC50 (PC3 cells) was 6.2 µg/mL (≈ 22.8 µM), the IC50 (LNCap cells) was 7 µg/mL (≈ 25.7 µM) and the IC50 (MCF-7 cells [2]; [9]) was 3.2 µg/mL (≈ 11.8 µM).
With `O=c1c(-c2ccc(O)cc2)coc2cc(O)c(O)cc12` [Factor 2, 6,7,4′-trihydroxyisoflavone] the IC50 (MCF-7 cells [2]; [11]) was 12 µg/mL (≈ 44.4 µM).
